Results from article PMC3919579, “Timing of GTP binding and hydrolysis by translation termination factor RF3” (Nucleic Acids Research, 2013).

These compounds were tested against T1, RF3 (Escherichia coli, UniProt P0A7I4) (assay: competition titration against mantGDP, FRET). Settings: pH 7.5, 37 °C, 7 mM MgCl2; competition with purified RF3-mantGDP.
T1 construct: gene prfC; free RF3, N-terminal His-tag, pET30a, BL21(DE3), Ni-NTA and Resource Q
Format: binding

T1 sequence (P0A7I4 2-529): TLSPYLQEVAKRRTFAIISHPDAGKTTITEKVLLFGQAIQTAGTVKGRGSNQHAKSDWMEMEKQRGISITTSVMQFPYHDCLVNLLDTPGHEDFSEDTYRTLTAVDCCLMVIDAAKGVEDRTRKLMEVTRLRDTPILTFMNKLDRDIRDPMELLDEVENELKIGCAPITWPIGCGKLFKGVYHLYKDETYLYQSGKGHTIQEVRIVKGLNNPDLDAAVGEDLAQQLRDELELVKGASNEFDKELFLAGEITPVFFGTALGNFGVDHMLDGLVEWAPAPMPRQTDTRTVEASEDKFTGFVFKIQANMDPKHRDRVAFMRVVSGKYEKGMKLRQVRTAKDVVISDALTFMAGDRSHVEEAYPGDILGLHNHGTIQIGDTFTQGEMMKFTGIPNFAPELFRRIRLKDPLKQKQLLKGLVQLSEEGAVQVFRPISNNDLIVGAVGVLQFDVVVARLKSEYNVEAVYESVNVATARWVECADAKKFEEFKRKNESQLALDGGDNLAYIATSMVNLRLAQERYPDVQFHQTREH

Point of comparison: `Nc1nc2c(ncn2[C@@H]2O[C@H](COP(=O)(O)OP(=O)(O)OP(=O)(O)O)[C@@H](O)[C@H]2O)c(=O)[nH]1` [GTP], “ratio of added nucleotide to mantGDP at half-saturation” value 3 fold. Against it:
- Nc1nc2c(ncn2[C@@H]2O[C@H](COP(=O)(O)OP(=O)(O)NP(=O)(O)O)[C@@H](O)[C@H]2O)c(=O)[nH]1 [GDPNP] — higher, 40 fold
- Nc1nc2c(ncn2[C@@H]2O[C@H](COP(=O)(O)OP(=O)(O)CP(=O)(O)O)[C@@H](O)[C@H]2O)c(=O)[nH]1 [GDPCP] — higher, 60 fold
- Nc1nc2c(ncn2[C@@H]2O[C@H](COP(=O)(O)OP(=O)(O)O)[C@@H](O)[C@H]2O)c(=O)[nH]1 [GDP] — lower, 1 fold
